Measurements from the NIST ThermoML archive (doi:10.1021/acs.jced.9b00844).
Numbers after ± are expanded uncertainties.

Assays:
[1] = Molar enthalpy of transition or fusion; conditions: Crystal; DSC
[2] = Crystal; DSC

Q: What does the source list for `N=C(N)NC(=N)NCCc1ccccc1` [N-(2-phenylethyl)imidodicarbonimidic diamide]?
A: Molar enthalpy of transition or fusion [1]: 2.78 ± 0.179 kcal/mol; Triple point temperature [2]: 446.85 ± 1.2 K
